Test results reported in ChEMBL document CHEMBL1201862, “PubChem BioAssay data set” (2004).
Active and inactive are the calls of the source.

Columns and labels:
Estrogen receptor = biological target: T1, Estrogen receptor (Homo sapiens, UniProt P03372);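 note: potency for inhibiting coactivator peptide recruitment to the receptor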
T1 sequence (P03372 whole entry): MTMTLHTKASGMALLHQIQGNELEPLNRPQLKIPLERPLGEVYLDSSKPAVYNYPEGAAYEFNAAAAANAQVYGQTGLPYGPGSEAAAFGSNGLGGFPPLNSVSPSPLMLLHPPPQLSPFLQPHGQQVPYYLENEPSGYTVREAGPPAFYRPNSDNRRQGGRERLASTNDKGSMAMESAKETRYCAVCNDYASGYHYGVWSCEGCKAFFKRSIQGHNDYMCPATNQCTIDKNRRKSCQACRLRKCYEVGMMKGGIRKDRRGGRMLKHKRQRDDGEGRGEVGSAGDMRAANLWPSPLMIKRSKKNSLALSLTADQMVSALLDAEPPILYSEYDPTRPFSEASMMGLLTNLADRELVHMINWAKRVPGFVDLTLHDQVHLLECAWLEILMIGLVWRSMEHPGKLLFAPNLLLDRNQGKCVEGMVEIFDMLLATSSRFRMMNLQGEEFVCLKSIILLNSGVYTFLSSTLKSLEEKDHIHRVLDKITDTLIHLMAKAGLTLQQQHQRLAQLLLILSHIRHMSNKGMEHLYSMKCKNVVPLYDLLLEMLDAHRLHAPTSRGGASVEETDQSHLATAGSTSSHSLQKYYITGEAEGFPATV

cells = type: functional
[1] = biological target: Induced myeloid leukemia cell differentiation protein Mcl-1 (Homo sapiens, UniProt Q07820); type: functional
Chain of Induced myeloid leukemia cell differentiation protein Mcl-1 (Q07820 whole entry): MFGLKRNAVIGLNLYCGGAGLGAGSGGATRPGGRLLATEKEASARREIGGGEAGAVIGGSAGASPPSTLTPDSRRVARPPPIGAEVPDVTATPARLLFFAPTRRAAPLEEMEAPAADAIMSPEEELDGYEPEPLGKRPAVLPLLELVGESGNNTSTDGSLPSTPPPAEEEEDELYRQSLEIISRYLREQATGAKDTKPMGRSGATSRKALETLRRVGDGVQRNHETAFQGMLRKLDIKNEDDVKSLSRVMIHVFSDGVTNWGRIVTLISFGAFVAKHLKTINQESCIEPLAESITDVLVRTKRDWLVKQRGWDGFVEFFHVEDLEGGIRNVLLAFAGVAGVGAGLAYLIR

[2] = HEK-293T cell viability reduction – luminescence, B-cell screen hits, cytotoxicity control for BCR NF-kB inhibitor project, dose response (AID 489021); type: functional, cell-based;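 note: HEK-293T cells carrying an NF-kB luciferase reporter; cells exposed to compound for about 14 hours before viability readout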
[3] = biological target: Luciferin 4-monooxygenase (Photinus pyralis, UniProt P08659); experiment: inhibition of purified Photinus pyralis luciferase – biochemical, luminescence, dose response (AID 1891)
Chain of Luciferin 4-monooxygenase (P08659 whole entry): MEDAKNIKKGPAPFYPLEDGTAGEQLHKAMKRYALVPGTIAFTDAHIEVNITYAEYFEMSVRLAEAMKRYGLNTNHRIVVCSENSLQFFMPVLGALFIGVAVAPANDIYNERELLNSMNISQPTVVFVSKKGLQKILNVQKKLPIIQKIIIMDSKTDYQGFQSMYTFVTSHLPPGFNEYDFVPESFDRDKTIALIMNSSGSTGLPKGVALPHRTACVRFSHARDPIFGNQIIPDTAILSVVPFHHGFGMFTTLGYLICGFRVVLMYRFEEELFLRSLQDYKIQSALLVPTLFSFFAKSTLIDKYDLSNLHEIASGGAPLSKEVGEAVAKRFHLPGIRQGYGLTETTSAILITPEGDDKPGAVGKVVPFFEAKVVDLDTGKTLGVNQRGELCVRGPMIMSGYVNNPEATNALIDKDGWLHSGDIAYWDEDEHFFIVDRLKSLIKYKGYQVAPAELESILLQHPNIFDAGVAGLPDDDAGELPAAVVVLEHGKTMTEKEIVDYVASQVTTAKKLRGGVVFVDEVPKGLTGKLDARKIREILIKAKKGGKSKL

[4] = Luminescence Cell-Based Dose Confirmation HTS to Identify Inhibitors of Platelet Dense Granule Release. [Related pubchem assays: 1663 (Primary HTS), 1678 (Summary of Project)]; type: functional
[5] = biological target: T2, Microphthalmia-associated transcription factor (Homo sapiens, UniProt O75030); experiment: reducers of TRPM1 reporter luminescence, concentration series – cell-based, SK-MEL-5, cherry-picked, set 3, MITF inhibitor project, dose response (AID 493073); type: functional;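 note: SK-MEL-5 melanoma cells with luciferase driven by the MITF target TRPM1 promoter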
T2 sequence (O75030 whole entry): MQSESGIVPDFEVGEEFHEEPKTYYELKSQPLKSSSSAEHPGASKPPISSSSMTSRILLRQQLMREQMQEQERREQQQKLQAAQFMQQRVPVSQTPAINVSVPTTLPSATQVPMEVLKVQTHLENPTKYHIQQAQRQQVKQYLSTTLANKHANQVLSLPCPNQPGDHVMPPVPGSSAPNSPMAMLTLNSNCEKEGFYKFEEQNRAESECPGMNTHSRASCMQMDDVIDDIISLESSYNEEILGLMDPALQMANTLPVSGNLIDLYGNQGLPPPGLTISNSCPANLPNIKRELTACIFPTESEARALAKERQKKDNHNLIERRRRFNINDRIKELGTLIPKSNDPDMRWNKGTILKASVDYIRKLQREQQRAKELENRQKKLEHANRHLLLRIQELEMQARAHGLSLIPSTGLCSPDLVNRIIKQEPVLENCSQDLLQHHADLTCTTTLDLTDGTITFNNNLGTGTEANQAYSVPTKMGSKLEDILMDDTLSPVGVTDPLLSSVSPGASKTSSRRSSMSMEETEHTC

Cytochrome P450 1A2 = biological target: T3, Cytochrome P450 1A2 (Homo sapiens, UniProt P05177);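 note: PubChem cytochrome P450 panel assay, CYP1A2 panel member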
T3 sequence (P05177 whole entry): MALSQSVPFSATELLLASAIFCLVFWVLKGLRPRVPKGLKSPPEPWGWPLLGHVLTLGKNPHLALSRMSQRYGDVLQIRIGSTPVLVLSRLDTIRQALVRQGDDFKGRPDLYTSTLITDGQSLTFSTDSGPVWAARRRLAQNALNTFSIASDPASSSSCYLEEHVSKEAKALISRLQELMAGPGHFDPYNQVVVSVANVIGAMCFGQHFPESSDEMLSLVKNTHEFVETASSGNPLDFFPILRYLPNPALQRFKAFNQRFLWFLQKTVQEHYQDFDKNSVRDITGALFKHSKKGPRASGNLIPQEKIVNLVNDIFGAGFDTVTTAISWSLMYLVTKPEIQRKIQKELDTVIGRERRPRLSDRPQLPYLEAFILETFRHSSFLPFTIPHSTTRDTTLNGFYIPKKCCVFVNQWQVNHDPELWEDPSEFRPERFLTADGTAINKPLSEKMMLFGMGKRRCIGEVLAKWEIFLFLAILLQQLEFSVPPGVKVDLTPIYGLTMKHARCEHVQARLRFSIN

Cytochrome P450 2C9 = Cytochrome P450 2C9 (Homo sapiens, UniProt P11712)
Chain of Cytochrome P450 2C9 (P11712 whole entry): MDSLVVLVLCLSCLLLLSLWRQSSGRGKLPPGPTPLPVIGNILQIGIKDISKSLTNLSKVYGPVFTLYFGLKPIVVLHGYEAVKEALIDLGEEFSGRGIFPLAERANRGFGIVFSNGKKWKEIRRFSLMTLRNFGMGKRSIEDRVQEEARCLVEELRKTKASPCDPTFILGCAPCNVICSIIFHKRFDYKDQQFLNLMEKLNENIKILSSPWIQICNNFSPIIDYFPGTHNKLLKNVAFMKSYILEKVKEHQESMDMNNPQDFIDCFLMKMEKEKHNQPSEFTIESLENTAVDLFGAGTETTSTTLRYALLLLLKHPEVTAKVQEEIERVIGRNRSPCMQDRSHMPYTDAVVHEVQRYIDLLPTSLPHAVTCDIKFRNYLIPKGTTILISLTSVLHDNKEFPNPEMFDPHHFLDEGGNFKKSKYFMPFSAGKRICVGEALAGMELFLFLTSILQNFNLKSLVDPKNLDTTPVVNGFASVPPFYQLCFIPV

Coagulation factor XII = biological target: T4, Coagulation factor XII (Homo sapiens, UniProt P00748); type: functional;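 note: activated factor XIIa alpha cleaving a fluorogenic AMC peptide substrate; inhibitor potency from loss of enzyme activity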
T4 sequence (P00748 whole entry): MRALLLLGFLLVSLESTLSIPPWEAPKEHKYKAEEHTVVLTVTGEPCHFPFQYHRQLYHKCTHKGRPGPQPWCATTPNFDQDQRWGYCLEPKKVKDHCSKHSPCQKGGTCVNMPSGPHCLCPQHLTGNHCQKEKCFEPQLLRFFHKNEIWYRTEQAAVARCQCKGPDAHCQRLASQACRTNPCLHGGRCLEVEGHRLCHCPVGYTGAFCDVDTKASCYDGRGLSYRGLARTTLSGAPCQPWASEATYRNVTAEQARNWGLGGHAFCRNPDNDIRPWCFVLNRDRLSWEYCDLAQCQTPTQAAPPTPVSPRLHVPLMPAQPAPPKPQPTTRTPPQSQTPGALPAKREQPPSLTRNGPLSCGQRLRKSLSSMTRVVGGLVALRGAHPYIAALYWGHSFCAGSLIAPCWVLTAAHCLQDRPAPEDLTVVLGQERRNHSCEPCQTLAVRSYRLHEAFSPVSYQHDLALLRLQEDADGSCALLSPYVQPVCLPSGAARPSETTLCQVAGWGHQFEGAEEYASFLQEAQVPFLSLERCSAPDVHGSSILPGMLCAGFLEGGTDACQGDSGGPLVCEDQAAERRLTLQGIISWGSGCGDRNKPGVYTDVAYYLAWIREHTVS

[6] = biological target: T5, Carboxy-terminal domain RNA polymerase II polypeptide A small phosphatase 1 (Homo sapiens, UniProt Q9GZU7); experiment: CTDSP1 inhibitors, concentration-response, biochemical, absorbance readout, ultra-high-throughput screen actives (AID 540297); type: functional
T5 sequence (Q9GZU7 whole entry): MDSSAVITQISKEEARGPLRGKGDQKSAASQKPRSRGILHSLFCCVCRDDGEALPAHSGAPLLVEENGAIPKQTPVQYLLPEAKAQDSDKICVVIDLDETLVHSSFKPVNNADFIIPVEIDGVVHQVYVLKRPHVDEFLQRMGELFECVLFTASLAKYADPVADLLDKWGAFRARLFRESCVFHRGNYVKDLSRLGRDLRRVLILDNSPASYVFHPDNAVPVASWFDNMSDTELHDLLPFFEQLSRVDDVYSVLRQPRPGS

Leucine aminopeptidase = biological target: T6, Leucine aminopeptidase (Plasmodium falciparum 3D7, UniProt Q8IL11); experiment: P. falciparum M17LAP inhibitors, primary screen, biochemical, fluorogenic H-Leu-NHMec substrate, 1536-well (AID 1619); type: functional
T6 sequence (Q8IL11 whole entry): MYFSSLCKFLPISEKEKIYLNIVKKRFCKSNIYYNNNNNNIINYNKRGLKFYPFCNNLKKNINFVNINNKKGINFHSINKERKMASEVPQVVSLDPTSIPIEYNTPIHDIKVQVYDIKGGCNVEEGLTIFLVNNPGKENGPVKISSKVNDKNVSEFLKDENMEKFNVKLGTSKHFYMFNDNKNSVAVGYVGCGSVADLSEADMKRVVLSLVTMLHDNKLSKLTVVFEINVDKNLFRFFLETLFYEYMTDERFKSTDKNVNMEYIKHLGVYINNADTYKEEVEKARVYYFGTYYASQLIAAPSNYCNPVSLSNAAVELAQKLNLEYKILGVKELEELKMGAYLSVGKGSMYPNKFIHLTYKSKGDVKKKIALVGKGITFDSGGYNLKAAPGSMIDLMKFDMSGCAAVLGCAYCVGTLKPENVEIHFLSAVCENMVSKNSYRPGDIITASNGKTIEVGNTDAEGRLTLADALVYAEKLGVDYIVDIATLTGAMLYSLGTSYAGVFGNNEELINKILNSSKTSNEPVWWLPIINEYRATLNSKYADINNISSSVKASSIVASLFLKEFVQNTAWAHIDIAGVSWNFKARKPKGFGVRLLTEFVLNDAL

[7] = luciferase reporter signal suppression in cells – H4 neuroglioma cells, luminescence, dose response (AID 1990); type: functional, cell-based
[8] = Luminescence Cell-Based Dose Response HTS to Identify Inhibitors of 5'UTR Stem-Loop Driven Prion Protein mRNA Translation in H4 Neuroglioblastoma Cells. [Related pubchem assays: 1827 (Project Summary), 1813 (Primary HTS)]; type: functional
[9] = alpha-synuclein stem-loop luciferase translation blockers – H4 neuroglioma cells, luminescence, confirmation (AID 1988); type: functional, cell-based

Structure (SMILES): NC(=S)n1[nH]c(-c2ccc([N+](=O)[O-])cc2)c(/N=N/c2ccc(O)cc2)c1=O
- IC50 (Estrogen receptor): 11 µM (active)
- IC50 (cells): 49.6 µM (active)
- IC50 [1]: 3.47 µM (active)

Structure (SMILES): Cc1ccc(-n2nc(C)cc2NC(=O)COc2cc(C)cc3oc(=O)c4c(c23)CCC4)cc1
- IC50 [1]: < 0.4 µM (not active)

Structure (SMILES): CC1(C)Cc2c(sc3c4nnnn4c4nnnn4c23)CO1
- IC50 (Estrogen receptor): 4.11 µM (active)

Structure (SMILES): COc1ccc(-c2ccc(C)cc2)cc1[C@H]1[C@H]2C=CC[C@@H](C)[C@@H]2C(=O)N1Cc1ccccc1
- IC50 [2]: > 80 µM (inactive)

Structure (SMILES): COc1cccc(C(c2sc3nc(C)nn3c2O)N2CCN(c3ccccc3F)CC2)c1 (centres undefined)
- EC50 [3]: > 112 µM (not active)
- EC50 [4]: > 112 µM (not active)

Structure (SMILES): O=C(CCl)N1CCN(S(=O)(=O)c2ccc3c(c2)CCC3)CC1
- AC50 [5]: 20.7 µM (active)
- IC50 [2]: > 80 µM (inactive)

Structure (SMILES): O=C1NC(=O)N(Cc2ccco2)C(=O)/C1=C/NC1CC1
- EC50 [3]: > 112 µM (not active)
- EC50 [4]: > 112 µM (not active)

Structure (SMILES): Cc1ccc(-c2c(C#N)c(N)n(-c3ccccc3)c(=O)c2C#N)cc1
- AC50 (Cytochrome P450 1A2): 11.2 µM (inconclusive)
- EC50 [3]: > 112 µM (not active)
- EC50 [4]: 3.25 µM (active)
- AC50 (Cytochrome P450 2C9): 7.94 µM (inconclusive)

Structure (SMILES): Cc1ccc(-c2nn3c(C)nnc3c3ccccc23)cc1S(=O)(=O)NC(C)(C)CO
- IC50 [2]: > 80 µM (inactive)

Structure (SMILES): O=C(c1cccnc1)C1CCCN(Cc2nc(-c3cnccn3)no2)C1 (centres undefined)
- IC50 (Coagulation factor XII): > 50 µM (inactive)

Structure (SMILES): Cc1nnc(SCC(=O)NC(=O)NCc2ccco2)n1Cc1ccccc1
- IC50 [6]: 5.15 µM (active)
- IC50 (Estrogen receptor): < 1.56 µM (active)

Structure (SMILES): CC(C)(C)SCCNS(=O)(=O)c1ccccc1
- IC50 (Coagulation factor XII): > 50 µM (inactive)

Structure (SMILES): O=C(CSc1nc2ccccc2s1)NC1CCCC1
- IC50 (Coagulation factor XII): > 50 µM (inactive)

Structure (SMILES): N[C@@H](Cc1cc(I)c(Oc2ccc(O)c(I)c2)c(I)c1)C(=O)O [LIOTHYRONINE SODIUM]
- IC50 [1]: 14.7 µM (active)

Structure (SMILES): COc1ccc(S(=O)(=O)NCC(c2cccnc2)N2CCN(C)CC2)cc1C (centres undefined)
- EC50 [3]: > 112 µM (not active)
- EC50 [4]: > 112 µM (not active)

Structure (SMILES): COC(=O)c1cc(NC(=O)Cn2c(=O)cnc3ccccc32)cc(C(=O)OC)c1
- IC50 (Estrogen receptor): > 50 µM (not active)

Structure (SMILES): O=C1CN(Cc2ccccc2)/C(=N\Cc2ccco2)S1
- IC50 (Coagulation factor XII): > 50 µM (inactive)

Structure (SMILES): CCOc1c(Br)cc(CNc2nc[nH]n2)cc1OC
- IC50 (Leucine aminopeptidase): 22.7 µM (active)

Structure (SMILES): O=C1NC(=O)N(Cc2ccccc2)C(=O)/C1=C\c1ccco1
- IC50 (Leucine aminopeptidase): 62.3 µM (active)

Structure (SMILES): CCOC(=O)C1CCN(c2ncnc3c2cnn3-c2ccc(OC)cc2)CC1
- IC50 [2]: > 80 µM (inactive)

Structure (SMILES): Cc1ccc2sc(NC(=O)C3CC3)nc2c1C
- EC50 [3]: > 112 µM (not active)
- EC50 [4]: > 112 µM (not active)

Structure (SMILES): Oc1ccc(C2c3sc(O)nc3SC3C4CCC(C4)C23)cc1 (centres undefined)
- IC50 (Estrogen receptor): > 50 µM (not active)

Structure (SMILES): CCOC(=O)c1c(-c2ccc(C)o2)csc1N
- EC50 [3]: > 112 µM (not active)
- EC50 [4]: > 112 µM (not active)

Structure (SMILES): Cc1nc2cc(-c3ccccc3)nn2c(C)c1CCC(=O)N1CCC2(CC1)OCCO2
- IC50 [2]: > 80 µM (inactive)
- EC50 [7]: < 0.1 µM (active)
- EC50 [8]: 14.6 µM (active)
- EC50 [9]: 0.259 µM (active)
